Experimental data as given in PubChem BioAssay AID256 (DTP/NCI, 2004).
Inconclusive results and toxic doses are left out. The calls were made as follows: active = survival T/C of 150% or more; inactive = T/C below 125% in these data. Non-standard residues stand in square brackets, D forms with d. Residues, ends and D or L forms follow the SMILES beside them. ξ: configuration not given here. *: point of attachment. ξW = NC(Cc1c[nH]c2ccccc12)C(=O)O; Cbz = O=C(OCc1ccccc1)*

System: CD2F1 mice, L1210 leukemia ip, survival T/C
Experiment: NCI In Vivo Anticancer Drug Screen. Data for tumor model L1210 Leukemia (intraperitoneal) in CD2F1 (CDF1) mice
Settings: higher = longer survival
Outline: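 Ratio T/C, where T is the treated-group value and C the vehicle-dosed control value, from mice implanted with a transplantable tumor.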

[1] = endpoint: mean survival time, dose: 100.0 mg/kg/injection, schedule: Q01DX009 (ip), vehicle: saline with Tween-80
[2] = endpoint: mean survival time, dose: 200.0 mg/kg/injection, schedule: Q01DX009 (ip), vehicle: saline with Tween-80
[3] = endpoint: mean survival time, dose: 400.0 mg/kg/injection, schedule: Q01DX009 (ip), vehicle: saline with Tween-80
[4] = endpoint: mean survival time, dose: 100.0 mg/kg/injection, schedule: Q04DX002 (ip), vehicle: saline with Tween-80
[5] = endpoint: mean survival time, dose: 200.0 mg/kg/injection, schedule: Q04DX002 (ip), vehicle: saline with Tween-80
[6] = endpoint: mean survival time, dose: 400.0 mg/kg/injection, schedule: Q04DX002 (ip), vehicle: saline with Tween-80
[7] = endpoint: mean survival time, dose: 100.0 mg/kg/injection, schedule: Q04DX003 (ip), vehicle: saline
[8] = endpoint: mean survival time, dose: 25.0 mg/kg/injection, schedule: Q01DX009 (ip), vehicle: saline with Tween-80
[9] = endpoint: mean survival time, dose: 50.0 mg/kg/injection, schedule: Q01DX009 (ip), vehicle: saline with Tween-80
[10] = endpoint: mean survival time, dose: 100.0 mg/kg/injection, schedule: Q01DX001 (ip), vehicle: saline with Tween-80
[11] = endpoint: mean survival time, dose: 400.0 mg/kg/injection, schedule: Q01DX001 (ip), vehicle: saline with Tween-80
[12] = endpoint: mean survival time, dose: 200.0 mg/kg/injection, schedule: Q04DX003 (ip), vehicle: saline
[13] = endpoint: mean survival time, dose: 400.0 mg/kg/injection, schedule: Q04DX003 (ip), vehicle: saline
[14] = endpoint: mean survival time, dose: 12.5 mg/kg/injection, schedule: Q04DX003 (ip), vehicle: saline with Tween-80
[15] = endpoint: mean survival time, dose: 25.0 mg/kg/injection, schedule: Q04DX003 (ip), vehicle: saline with Tween-80

Measured: T/C

Nc1ccc(C(=O)Oc2ccc([N+](=O)[O-])cc2)cc1
inactive: [1] 108 % of control | [2] 102 % of control | [3] 98 % of control

CN1CCC(C#N)(c2ccccn2)CC1
inactive: endpoint: mean survival time, dose: 5.0 mg/kg/injection, schedule: Q01DX009 (ip), vehicle: saline with Tween-80 95 % of control | endpoint: mean survival time, dose: 5.0 mg/kg/injection, schedule: Q01DX009 (ip), vehicle: saline 103 % of control | endpoint: mean survival time, dose: 10.0 mg/kg/injection, schedule: Q01DX009 (ip), vehicle: saline with Tween-80 91 % of control | endpoint: mean survival time, dose: 10.0 mg/kg/injection, schedule: Q01DX009 (ip), vehicle: saline 106 % of control | endpoint: mean survival time, dose: 20.0 mg/kg/injection, schedule: Q01DX009 (ip), vehicle: saline 97 % of control

O=S1c2ccccc2-c2ccccc21
inactive: [4] 92 % of control | [5] 100 % of control | [6] 103 % of control

c1nc(N2CC2)c2cnn(C3CCCCO3)c2n1 (stereo not given)
inactive: endpoint: mean survival time, dose: 25.0 mg/kg/injection, schedule: Q04DX003 (ip), vehicle: saline 96 % of control | endpoint: mean survival time, dose: 50.0 mg/kg/injection, schedule: Q04DX003 (ip), vehicle: saline 103 % of control | [7] 100 % of control

O=C(O)c1cccc2c1-c1ccccc1C(Br)C2Br (stereo not given)
inactive: [8] 93 % of control | endpoint: mean survival time, dose: 50.0 mg/kg/injection, schedule: Q01DX005 (ip), vehicle: saline with Tween-80 100 % of control | [9] 93 % of control | endpoint: mean survival time, dose: 100.0 mg/kg/injection, schedule: Q01DX005 (ip), vehicle: saline with Tween-80 88 % of control | [1] 89 % of control

O=C=Nc1ccc(N=Nc2ccccc2)cc1
inactive: [8] 89 % of control | [9] 88 % of control | [10] 95 % of control | [1] 98 % of control | [11] 90 % of control

C/C(=N\O)c1ccccn1
inactive: endpoint: mean survival time, dose: 25.0 mg/kg/injection, schedule: Q01DX009 (ip), vehicle: Klucel (hydroxypropylcellulose) (HPC) 95 % of control | endpoint: mean survival time, dose: 50.0 mg/kg/injection, schedule: Q01DX009 (ip), vehicle: Klucel (hydroxypropylcellulose) (HPC) 100 % of control | endpoint: mean survival time, dose: 100.0 mg/kg/injection, schedule: Q01DX009 (ip), vehicle: Klucel (hydroxypropylcellulose) (HPC) 90 % of control | endpoint: mean survival time, dose: 200.0 mg/kg/injection, schedule: Q01DX009 (ip), vehicle: Klucel (hydroxypropylcellulose) (HPC) 95 % of control | endpoint: mean survival time, dose: 400.0 mg/kg/injection, schedule: Q01DX009 (ip), vehicle: Klucel (hydroxypropylcellulose) (HPC) 105 % of control

CCCCOc1nc(-c2ccncc2)nc(N(C)C)n1
inactive: endpoint: mean survival time, dose: 16.0 mg/kg/injection, schedule: Q04DX002 (ip), vehicle: saline 92 % of control | endpoint: mean survival time, dose: 31.0 mg/kg/injection, schedule: Q04DX002 (ip), vehicle: saline 92 % of control | endpoint: mean survival time, dose: 63.0 mg/kg/injection, schedule: Q04DX002 (ip), vehicle: saline 100 % of control | endpoint: mean survival time, dose: 100.0 mg/kg/injection, schedule: Q01DX002 (ip), vehicle: saline 100 % of control

O.O.[Cl][Pt+2][Cl].[NH-]CC1(C[NH-])CCCCC1
inactive: endpoint: median survival time, dose: 3.12 mg/kg/injection, schedule: Q04DX003 (ip), vehicle: saline 121 % of control

Cc1nc(/N=C(\N)Nc2ccc(Cl)c(Cl)c2)[nH]c(=O)c1Cc1ccccc1
inactive: endpoint: mean survival time, dose: 100.0 mg/kg/injection, schedule: Q04DX003 (ip), vehicle: saline with Tween-80 95 % of control | endpoint: mean survival time, dose: 200.0 mg/kg/injection, schedule: Q04DX003 (ip), vehicle: saline with Tween-80 88 % of control | endpoint: mean survival time, dose: 400.0 mg/kg/injection, schedule: Q04DX003 (ip), vehicle: saline with Tween-80 102 % of control

Cc1cccc(-n2cc(C#N)c3c(C)cc(C)nc32)c1
inactive: [7] 106 % of control | [12] 101 % of control | [13] 97 % of control

CN(C)Cc1ccc2ccccc2c1
inactive: endpoint: mean survival time, dose: 50.0 mg/kg/injection, schedule: Q01DX001 (ip), vehicle: saline 102 % of control | endpoint: mean survival time, dose: 100.0 mg/kg/injection, schedule: Q01DX001 (ip), vehicle: saline 97 % of control

C=CC(C)(C)c1ccccc1
inactive: [9] 93 % of control | [1] 96 % of control | [2] 98 % of control

Cc1cc(=O)[nH]c(-n2nc(N)nc2N)n1
inactive: endpoint: mean survival time, dose: 75.0 mg/kg/injection, schedule: Q01DX001 (ip), vehicle: saline 107 % of control | endpoint: mean survival time, dose: 150.0 mg/kg/injection, schedule: Q01DX001 (ip), vehicle: saline 101 % of control | endpoint: mean survival time, dose: 300.0 mg/kg/injection, schedule: Q01DX001 (ip), vehicle: saline 101 % of control

O=C1c2ccccc2C(=O)N1CNCCCNCN1C(=O)c2ccccc2C1=O
inactive: [1] 98 % of control | [2] 98 % of control | [3] 96 % of control

[CH3][Sn]([Br])([Br])[CH2]CCCBr
inactive: endpoint: mean survival time, dose: 0.39 mg/kg/injection, schedule: Q01DX009 (ip), vehicle: saline 90 % of control | endpoint: mean survival time, dose: 0.78 mg/kg/injection, schedule: Q01DX009 (ip), vehicle: saline 97 % of control | endpoint: mean survival time, dose: 1.56 mg/kg/injection, schedule: Q01DX009 (ip), vehicle: saline 97 % of control | endpoint: mean survival time, dose: 6.25 mg/kg/injection, schedule: Q01DX009 (ip), vehicle: saline 110 % of control

O=C(Cc1ccccn1)NCC(O)c1ccccc1 (stereo not given)
inactive: [7] 89 % of control | [12] 102 % of control | [13] 100 % of control

O=C(Nc1cc(S(=O)(=O)O)cc2cc(S(=O)(=O)O)c(N=Nc3ccc([As](=O)(O)O)cc3)c(O)c12)c1ccc([N+](=O)[O-])cc1
inactive: endpoint: mean survival time, dose: 12.5 mg/kg/injection, schedule: Q04DX002 (ip), vehicle: saline 101 % of control | endpoint: mean survival time, dose: 25.0 mg/kg/injection, schedule: Q04DX002 (ip), vehicle: saline 94 % of control | endpoint: mean survival time, dose: 50.0 mg/kg/injection, schedule: Q04DX002 (ip), vehicle: saline 94 % of control

Cc1ccccc1C1CCC(=O)OC1=O (stereo not given)
inactive: [10] 97 % of control | [4] 100 % of control | endpoint: mean survival time, dose: 200.0 mg/kg/injection, schedule: Q01DX001 (ip), vehicle: saline with Tween-80 95 % of control | [5] 103 % of control | [11] 94 % of control | [6] 100 % of control

O=C1OC(O)(c2ccc(Cl)cc2)C(Cc2ccccc2)=C1c1ccccc1 (stereo not given)
inactive: [4] 97 % of control | [5] 90 % of control | [6] 102 % of control

COc1cc[n+](CCc2c[nH]c3ccccc23)cc1
inactive: endpoint: mean survival time, dose: 12.5 mg/kg/injection, schedule: Q01DX009 (ip), vehicle: saline sonified 97 % of control | [14] 97 % of control | endpoint: mean survival time, dose: 25.0 mg/kg/injection, schedule: Q01DX009 (ip), vehicle: saline sonified 98 % of control | [15] 101 % of control | endpoint: mean survival time, dose: 50.0 mg/kg/injection, schedule: Q01DX009 (ip), vehicle: saline sonified 100 % of control | endpoint: mean survival time, dose: 50.0 mg/kg/injection, schedule: Q04DX003 (ip), vehicle: saline with Tween-80 104 % of control

CC(C)CNC(=O)Nc1ccccc1C(F)(F)F
inactive: [1] 96 % of control | [2] 98 % of control | [3] 91 % of control

NC(=O)CNC(=O)C(Cc1c[nH]c2ccccc12)NC(=O)OCc1ccccc1 (stereo not given) (Cbz-[ξW]-Gly-NH2)
inactive: endpoint: mean survival time, dose: 75.0 mg/kg/injection, schedule: Q04DX003 (ip), vehicle: saline 93 % of control | endpoint: mean survival time, dose: 150.0 mg/kg/injection, schedule: Q04DX003 (ip), vehicle: saline 97 % of control | endpoint: mean survival time, dose: 300.0 mg/kg/injection, schedule: Q04DX003 (ip), vehicle: saline 98 % of control

O=C(Nc1ccc(N(CCCl)CCCl)cc1)c1ccccc1
inactive: endpoint: mean survival time, dose: 100.0 mg/kg/injection, schedule: Q04DX003 (ip), vehicle: Klucel (hydroxypropylcellulose) (HPC) 96 % of control | endpoint: mean survival time, dose: 200.0 mg/kg/injection, schedule: Q04DX003 (ip), vehicle: Klucel (hydroxypropylcellulose) (HPC) 101 % of control | endpoint: mean survival time, dose: 400.0 mg/kg/injection, schedule: Q04DX003 (ip), vehicle: Klucel (hydroxypropylcellulose) (HPC) 109 % of control

Cc1nc(CCCCCCCC(=O)O)ccc1O
inactive: endpoint: mean survival time, dose: 100.0 mg/kg/injection, schedule: Q04DX002 (ip), vehicle: saline 94 % of control | endpoint: mean survival time, dose: 200.0 mg/kg/injection, schedule: Q04DX002 (ip), vehicle: saline 97 % of control | endpoint: mean survival time, dose: 400.0 mg/kg/injection, schedule: Q04DX002 (ip), vehicle: saline 109 % of control

COC(=O)c1ccccc1N1C(=O)C=CC1=O
inactive: [14] 98 % of control | [15] 89 % of control
